Measured values as given in patent publication US7560117B2, “Foamy virus mutant reverse transcriptase” (priority 2001, dated 2009).

Tests used:
[1] = target: HIV-1 RT (Human immunodeficiency virus type 1 group M subtype B, UniProt P03366); test: 3TCTP inhibition assay, M13 template, radiolabeled dCTP incorporation; details: 1.0 μM 3TCTP; activity without drug set at 100%
Experimental: The 3TCTP inhibition assays were performed using the M13 template and the −47 primer. The −47 sequencing primer was annealed to the single stranded M13mp18 DNA by heating to 95° C. and slowly cooling to room temperature. The template-primer was extended by adding 1.0 μg of RT in 25 mM Tris(pH 8.0), 75 mM KCl, 8.0 mM MgCl2, 100 μg/ml BSA, 10 mM CHAPS, 10 μM each of dATP, dGTP, and dTTP, 2.0 μM [α-^32P]dCTP, and the indicated concentrations of 3TCTP (Moravek Biochemicals, Brea, Calif.) in a 100 μl reaction volume. The mixture was incubated at 37° C. for 30 min, then halted by the addition of 3 ml of ice-cold trichloroacetic acid (TCA) and the precipitated DNA was collected by suction filtration through Whatman GF/C glass filters. The amount of incorporated radioactivity was determined by liquid scintillation counting.
Samples were TCA precipitated, bound to glass filters, and incorporation of radiolabeled dCTP was measured. […] These levels of RT activity in the absence of drug were set at 100% activity for each recombinant RT.

[2] = tested on: PFV; details: previous studies; cited from earlier work
[3] = tested on: PFV; details: virus producing cells treated with inhibitor
[4] = tested on: PFV; assay type: cell-based, Prototype Foamy Virus (SFVcpz(hu))

SMILES	specific inhibition of production of infectious PFV particles [2]	also measured
Nc1ccn([C@@H]2CS[C@H](COP(=O)(O)OP(=O)(O)OP(=O)(O)O)O2)c(=O)n1 [3TCTP]		activity retained by HIV-1 RT [1]: 37%
Nc1ccn([C@@H]2CS[C@H](CO)O2)c(=O)n1 [3TC]	not	
Cc1cn([C@H]2C[C@H](N=[N+]=[N-])[C@@H](CO)O2)c(=O)[nH]c1=O [AZT]	specific inhibition was demonstrated	specific decrease in infectivity [3]: greater than 10 fold
Nc1nc(=O)n(C2CSC(CO)O2)cc1F (stereo not drawn) [FTC, beta-2′,3′-dideoxy-5-fluoro-3′-thiacytidine]		Titer Relative to No-Drug Control, Pretreated [4]: 122
O=c1[nH]cnc2c1ncn2[C@H]1CC[C@@H](CO)O1 [ddI]	not	
